Experimental data: patent publication US20240189263A1, “DERIVATIZED C60 MOLECULES AND METHODS AND MATERIALS FOR USING DERIVATIZED C60 MOLECULES TO REDUCE RADIATION INJURY” (Mayo Foundation for Medical Education and Research, priority 2021, published 2024)

Tests used:
[1] = SEM analysis of C60-ser aggregates; type: physicochemical; details: frozen and vacuum-dried solutions
Method: Solutions of C60-ser were frozen with liquid nitrogen and dried under high vacuum while still frozen. FIGS. 3A and 3B show example scanning electron microscopy (SEM) images of aggregates of C60-ser. The aggregates formed when solid C60-ser was dissolved in water or an aqueous salt solution. The aggregates formed within a period of seconds to several hours, after which the system remained in equilibrium.

[2] = test system: HepG2 cells; assay: MTS cytotoxicity assay, HepG2; type: cell-based; details: HepG2, 1-1000 μM, 24, 48 or 72 hours
Method: Cytotoxicity of C60-ser was determined by an MTS (3-(4,5-dimethylthiazol-2-yl)-5-(3-carboxymethoxyphenyl)-2-(4-sulfophenyl)-2H-tetrazolim) colorimetric assay on four different cell lines, each representing a different cell type. Specifically, HepG2 (liver epithelium), HUVEC (endothelial cells), N2A (neuroblastoma cells representative of normal neurons), and NIH3T3 (fibroblasts) were analyzed. The cells were seed in a 96-well tissue culture polystyrene plate at different seeding concentrations based on the cell's doubling time. HUVEC cells were seeded at 10,000 cells/well (24 hour experiments), 8,000 cells/well (48 hour experiments), and 5,000 cells/well (72 hour experiments), and incubated for 24 hours in a humidified atmosphere with 5% C02 at 37° C. […] After incubation with MTS, the optical density (OD) of the resulting formazan solution was read at 490 nm using a microplate reader (Biotek Cytation 5 cell Imaging Multi-Mode reader, Winooski, VT). The cell viability was obtained by normalizing the absorbance of the sample with that of the control wells containing untreated cells. The cell viability was expressed as a percentage, assigning the viability of non-treated cells as 100%. […]

[3] = test system: N2A cells; assay: DNA damage, γH2AX foci immunofluorescence, N2A; type: cell-based
Method: (§1) To test the ability of C60-ser to protect against radiation injury, the level of DNA damage in response to radiation was analyzed by measuring γH2AX. The H2AX protein becomes phosphorylated into γH2AX as a result of DNA double strand breaks. This allows for the visualization and quantification of double strand break foci through immunofluorescence analysis. Cells were plated on 8 chamber slides and incubated overnight before C60-ser treatment. Three sets of slides per cell line (to be irradiated with 0, 0.5, and 1 Gy) were prepared, with the top 4 rows used as a control and the bottom 4 rows incubated with 100 μM C60-ser. Cells were incubated with C60-ser for 2 hours before irradiation with a clinical Proteus One proton machine (Ion Beam Applications, Louvain-la-Neuve, Belgium). A 230 MeV mono-energetic unmodulated broad beam of large field size that encompassed all slides containing the cells was used to deliver the 0.5 and 1 Gy doses. White solid water slabs (IBA Dosimetry, Germany) provided the necessary phantom material to place the cells at the desired 8 cm depth with an LET of approximately 1.7 keV/μm. After irradiation, cells were incubated at 37° C. with 5% CO2 for 30 minutes before washing and fixing the cells with 1% formaldehyde. The cells were permeabilized with 1% NP-40 and incubated with 5% BSA to block unspecific antibody bonding. The cells were then incubated with γH2AX primary antibody followed by a secondary antibody. Mounting media containing DAPI was used before applying cover slips and sealing the samples. Cells were imaged on an Olympus IX71 trinocular inverted fluorescence phase contrast microscope with a 40× objective. The resulting images were analyzed by ImageJ, and the foci were counted.

[4] = test system: HepG2 cells; assay: DNA damage, γH2AX foci immunofluorescence, HepG2; type: cell-based
Method: as §1

[5] = test system: N2A cells; assay: Seahorse mitochondrial respiration (oxygen consumption rate), N2A; type: cell-based; details: pretreated 2 hours before 1 Gy 230 MeV proton
Method: The oxygen consumption rates were assessed in N2A, HUVEC, NIH3T3, and HepG2 cell lines with a Seahorse XFe96 (Agilent Technologies, Santa Clara, CA, USA). Cells were treated with 0 and 1 Gy of 230 MeV proton irradiation. The control plates were run at about the same time post plating. Each cell line was optimized prior to these experiments, and data was presented normalized to cell number plated. The standard mitochondrial stress test was performed using serial injections of oligomycin (1.5 μM), carbonyl cyanide p-(trifluoromethoxy)phenylhydrazone (FCCP, 1 μM), and rotenone/antimycin A mixture (0.5 μM). After injection of oligomycin, which inhibits ATP synthase (complex V), there was a drop in electron flow through the electron transport chain (ETC) and a resultant drop in oxygen consumption rate (OCR) of the cells. Injection of FCCP collapsed the proton gradient and allowed for uninhibited electron flow through the ETC supercomplexes. […] The reserve respiratory capacity was calculated by subtracting the basal respiratory capacity from the maximal respiratory capacity.

[6] = Stability of C60-ser, hexakis-adduct peak by HPLC-ELSD; type: physicochemical
Method: Stability of the C60-ser product as prepared in Example 1 was analyzed by measuring the hexakis-adduct peak with high performance liquid chromatography (HPLC) equipped with evaporative light scattering detector (ELSD). The C60-ser was stored as a solid form at 4° C. under nitrogen, as a solution in DI water at 4° C., and as a solution in DI water at room temperature. The stability of the C60-ser in each set of storage conditions was measured at 1, 7, 28, and 120 days (Table 1).

For O=C(NC(CO)CO)C1(C(=O)NC(CO)CO)C23c4c5c6c7c8c4-c4c2c2c9c%10c4C4%11c%12c-%10c%10c%13c%14c%12-c%12c(c-7c7c%15c%12C%14%12C(C(=O)NC(CO)CO)(C(=O)NC(CO)CO)C%12%14c%12c%16c%17c%18c(c%12-%15)C7%12C(C(=O)NC(CO)CO)(C(=O)NC(CO)CO)C6%12c6c-5c5c7c(c6-%18)C%176C(C(=O)NC(CO)CO)(C(=O)NC(CO)CO)C6%12c6c-7c(c-2c2c6-c6c%12c-%16c%14c-%13c6C%106C(C(=O)NC(CO)CO)(C(=O)NC(CO)CO)C926)C513)C84C%11(C(=O)NC(CO)CO)C(=O)NC(CO)CO (stereo not shown) [C60-ser, C60-serinol], which “internal diameters of hollow hull aggregates” value [1] is on record?
Its value is 40-1000 nm.

What about the percent viability [2] of the same compound?
Its percent viability is “did not result in a significant decrease in viability”.

And the “γH2AX foci vs control” value ([3]; 100 μM 2 hours before 0.5 Gy proton radiation)?
Its value is “trend towards reduction in total foci formed, but it was not statistically significant”.

What about the “γH2AX foci vs control” value ([3]; 100 μM 2 hours before 1 Gy proton radiation) of the same compound?
Its value is “significant decrease in the number of foci”.

And the “γH2AX foci vs control” value ([3]; 100 μM 2 hours, absence of radiation)?
Its value is “no significant different in foci expression”.

What about the “γH2AX foci vs control” value ([4]; HepG2, 100 μM 2 hours before 0.5 Gy proton radiation) of the same compound?
Its value is “trend towards reduction in total foci formed, but it was not statistically significant”.

What about the “γH2AX foci vs control” value ([4]; HepG2, 100 μM 2 hours before 1 Gy proton radiation) of the same compound?
Its value is “significant decrease in the number of foci”.

What about the “γH2AX foci vs control” value ([4]; HepG2, 100 μM 2 hours, absence of radiation) of the same compound?
Its value is “no significant different in foci expression”.

What about the “radiation-induced increase in respiratory capacity” value [5] of the same compound?
Its value is “dampened and, in some cases, reduced to normal or slightly below normal levels”.

And the “Stability of C60-ser (hexakis-adduct peak)” value (from here on “Stability of C60-ser”) ([6]; Solid form at 4° C. under nitrogen, 1 day)?
Its value is 100 ± 2%.

And the “Stability of C60-ser” value ([6]; Solid form at 4° C. under nitrogen, 7 days)?
The value was 100 ± 1%.

What about the “Stability of C60-ser” value ([6]; Solid form at 4° C. under nitrogen, 28 days) of the same compound?
The value was 100 ± 1%.

What about the “Stability of C60-ser” value ([6]; Solid form at 4° C. under nitrogen, 120 days) of the same compound?
Its value is 100 ± 2%.

What about the “Stability of C60-ser” value ([6]; Solution in DI water at 4° C., 1 day) of the same compound?
Its value is 100 ± 2%.

And the “Stability of C60-ser” value ([6]; Solution in DI water at 4° C., 7 days)?
The value was 100 ± 2%.

And the “Stability of C60-ser” value ([6]; Solution in DI water at 4° C., 28 days)?
The value was 100 ± 3%.

And the “Stability of C60-ser” value ([6]; Solution in DI water at 4° C., 120 days)?
Its value is 98 ± 3%.

And the “Stability of C60-ser” value ([6]; Solution in DI water at room temperature, 1 day)?
Its value is 100 ± 2%.

And the “Stability of C60-ser” value ([6]; Solution in DI water at room temperature, 7 days)?
Its value is 100 ± 2%.

And the “Stability of C60-ser” value ([6]; Solution in DI water at room temperature, 28 days)?
Its value is 96 ± 3%.

What about the “Stability of C60-ser” value ([6]; Solution in DI water at room temperature, 120 days) of the same compound?
The value was 95 ± 4%.

What about the “degradation of the hexakis-adduct peak” value ([6]; solid at 4° C. under nitrogen) of the same compound?
The value was “no degradation of the hexakis-adduct peak was observed”.
